The values that follow come from US9624256B2, “Coordination complexes, pharmaceutical solutions comprising coordination complexes, and methods of treating patients” (SYNTHONICS, INC., priority 2004, dated 2017).

Where “and” joins values, the source holds several entries; their conditions need not be identical. Equal values may be shown once. Read-outs that look alike come from different tables or passages of the source.

The log D is the decadic logarithm of the distribution of all forms, ionised or not, between an organic phase and buffer at a given pH.

For series [1] the following is noted: 23° C., cited from earlier work.
For series [2] the following is noted: for pH: Table 2, pH of the solution; for increase in water solubility over SAHA: pH 10.
Series [3] can be described thus: Precipitation test after adjusting aqueous solution to pH 7.0. The note with it: 32 mg based on topiramate in 1 mL H2O, pH adjusted to 7.0 with 1.0 N HCl. The series is classed as physicochemical.
Series [4] can be described thus: Solubility/pH studies of topiramate-containing coordination complexes (gravimetric). The series is classed as physicochemical. On the procedure: Solubility/pH Studies of Topiramate-Containing Coordination Complexes: Initial screening of drug candidates was based on a qualitative determination of aqueous solubility using gravimetric methods. Briefly, a known quantity of coordination compound (ca. 50 mg) was dissolved in a known amount of water ([…]). The pH of the resulting mixture was measured, and the solution/suspension was filtered and concentrated to afford a minimal solubility value.

The conditions of series [5]: pH 7.4; cited from earlier work.
For series [6] the following is noted: cited from earlier work.
The conditions of series [7]: highly variable; cited from earlier work.

On to `CC1(C)O[C@@H]2[C@@H](CO[C@@]3(COS([NH-])(=O)=O)OC(C)(C)O[C@@H]23)O1.O.O.O.[Na+]` [sodium topiramate trihydrate], for which the water solubility entry in series [1] (trihydrate) is “about 1300 mg/mL and ~3.59 M”.

With `O=C(CCCCCCC(=O)Nc1ccccc1)N[O-].O=C(CCCCCCC(=O)Nc1ccccc1)N[O-].[Ni+2]` [Compound 3, Ni(saha)2], in series [2], the “pH of the solution” value came to 5.86 and the pH stood at 5.67.

As to `CC1(C)O[C@@H]2[C@@H](CO[C@@]3(COS([NH-])(=O)=O)OC(C)(C)O[C@@H]23)O1.CC1(C)O[C@@H]2[C@@H](CO[C@@]3(COS([NH-])(=O)=O)OC(C)(C)O[C@@H]23)O1.[Ca+2]` [Calcium(topiramate)2], the precipitation on standing entry in series [3] is reported as “No precipitate was observed upon standing for 2 hours”. In series [4] (pH 7.0), the “solubility relative to free topiramate” value is “at least three times the solubility of free topiramate”. Further, the “solubility (minimal value)” value in series [4] (pH 7.0, gravimetric) is given as at least 34 mg/mL.

Turning to `CC1(C)O[C@@H]2[C@@H](CO[C@@]3(COS([NH-])(=O)=O)OC(C)(C)O[C@@H]23)O1.CC1(C)O[C@@H]2[C@@H](CO[C@@]3(COS([NH-])(=O)=O)OC(C)(C)O[C@@H]23)O1.[Ca+2]` [Calcium Salt of Topiramate], the precipitation on standing result in series [3] is “A precipitate formed immediately”.

For the compound Ca(saha)(quinic acid) [Compound 5], the “increase in water solubility over SAHA” value in series [2] is about 19 fold.

Consider `O=C(CCCCCCC(=O)Nc1ccccc1)N[O-].O=C(CCCCCCC(=O)Nc1ccccc1)N[O-].[Ca+2]` [Compound 2, Ca(saha)2], for which, in series [2], the “pH of the solution” value is listed as 8.60 and the pH stood at 8.6. Moreover, in series [2] (in words), the “pH of solution compared with SAHA” value is recorded as “slightly higher than the pH of a solution of SAHA itself”.

On to `CC1(C)O[C@@H]2[C@@H](CO[C@@]3(COS(N)(=O)=O)OC(C)(C)O[C@@H]23)O1` [topiramate, 2,3:4,5-bis-O-isopropylidene-β-D-fructopyranose sulfamate], for which, in series [5], the “log D” value is listed as −0.5. In addition, the water solubility result in series [1] was “about 9.8 mg/mL and ~0.029 M”.

`O=C(CCCCCCC(=O)Nc1ccccc1)N[O-].[Na+]` [Na(saha)]: in series [2], the “pH of the solution” value is “around 10”, the pH was determined as 10 and the “increase in water solubility over SAHA” value is on record as about 7 fold. In addition, the “pH of the solution” value in series [2] (listed as sodium salt of SAHA) is given as 10. Further, in series [6] (prior study, Memorial Sloan Kettering Cancer Center), the “solution pH required to stay in solution” value is “above 11”.

In series [2], `O=C(CCCCCCC(=O)Nc1ccccc1)NO` [SAHA, suberoylanilide hydroxamic acid] gave a pH of 7.95. Also, the oral bioavailability entry in series [7] is listed as “less than 50%”. In series [6], the water solubility entry was “about 0.1 mg/mL”.

For the compound `O=C(CCCCCCC(=O)Nc1ccccc1)N[O-].O=C(CCCCCCC(=O)Nc1ccccc1)N[O-].[Mg+2]` [Compound 1, Mg(saha)2], in series [2], the “pH of the solution” value is 7.75 and the pH was found to be 7.94.

In the case of Ca(saha)(tricine) [Compound 4], in series [2], the “pH of the solution” value is reported as 8.75 and the pH worked out at 8.75.
